Data: publication PMC8544245 (Journal of medicinal chemistry, 2020)
Where “and” joins values, the source holds several entries; their conditions need not be identical. Equal values may be shown once. Read-outs that look alike come from different tables or passages of the source. Non-standard residues stand in square brackets, D forms with d. Residues, ends and D or L forms follow the SMILES beside them. *: point of attachment. d(hPhe) = N[C@H](CCc1ccccc1)C(=O)O; Bn = c1ccc(C*)cc1; NHOH = ON*

Legend:
MMP-3 [1] = target: T1, MMP-3 (Homo sapiens, UniProt P08254); assay: SensoLyte 520 Fluorimetric Assay Kit selectivity assay, MMP-3; format: biochemical; settings: agents tested at 25 nM or at 4 nM (Figure 5)
T1 sequence (P08254 100-272 limits assumed): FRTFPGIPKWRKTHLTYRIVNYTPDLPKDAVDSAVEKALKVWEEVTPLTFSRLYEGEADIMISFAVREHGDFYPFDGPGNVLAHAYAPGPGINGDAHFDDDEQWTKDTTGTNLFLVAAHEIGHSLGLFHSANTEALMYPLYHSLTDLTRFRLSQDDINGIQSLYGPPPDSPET

[2] = test system: elastase-induced emphysema (lung tissue destruction); assay: Murine model of elastase-induced emphysema, mean linear intercept; format: in vivo, C57BL/6 mice; settings: PPE intranasal, i.p. treatment once daily for 7 days from day 2, read at day 21
MMP-14 [3] = target: T2, MMP-14 (Homo sapiens, UniProt P50281); settings: even at 1 μM; cited from earlier work
MMP-9 [4] = target: T3, MMP-9 (Homo sapiens, UniProt P14780); settings: even at 1 μM; cited from earlier work
T3 sequence (P14780 107-444 limits assumed): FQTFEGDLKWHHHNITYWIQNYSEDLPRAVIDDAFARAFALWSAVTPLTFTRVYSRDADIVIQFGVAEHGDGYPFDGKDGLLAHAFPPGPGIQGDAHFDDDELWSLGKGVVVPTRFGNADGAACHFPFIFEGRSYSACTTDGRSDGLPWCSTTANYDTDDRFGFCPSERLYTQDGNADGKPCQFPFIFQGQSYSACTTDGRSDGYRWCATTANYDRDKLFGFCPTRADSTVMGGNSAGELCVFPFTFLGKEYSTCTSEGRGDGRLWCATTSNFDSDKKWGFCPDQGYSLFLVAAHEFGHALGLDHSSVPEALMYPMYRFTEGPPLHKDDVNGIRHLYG

MMP-13 [5] = target: T4, MMP-13 (Homo sapiens, UniProt P45452); settings: even at 1 μM; cited from earlier work
MMP-1 [6] = target: T5, MMP-1 (Homo sapiens, UniProt P03956); settings: even at 1 μM; cited from earlier work
T5 sequence (P03956 100-269 limits assumed): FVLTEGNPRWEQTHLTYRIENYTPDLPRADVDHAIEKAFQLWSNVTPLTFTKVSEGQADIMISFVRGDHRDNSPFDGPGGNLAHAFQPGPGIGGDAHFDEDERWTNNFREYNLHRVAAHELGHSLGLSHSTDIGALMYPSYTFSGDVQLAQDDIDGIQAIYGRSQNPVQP

hMMP-12 [7] = target: T6, hMMP-12 (Homo sapiens, UniProt P39900); settings: read-out: IC50 for hMMP-12 inhibition; dose response (Figure 2B); cited from earlier work
T6 sequence (P39900 106-263): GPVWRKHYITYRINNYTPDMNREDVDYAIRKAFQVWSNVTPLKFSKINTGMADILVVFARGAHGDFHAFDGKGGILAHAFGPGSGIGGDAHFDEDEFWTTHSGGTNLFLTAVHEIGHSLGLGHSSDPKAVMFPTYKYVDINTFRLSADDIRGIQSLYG

MMP-3 [8] = target: T1, MMP-3; settings: at 55 nM; cited from earlier work
[9] = Solubility in the dosing formulation; format: physicochemical; settings: 10% DMSO, 40% PEG400, and 10% (2-hydroxypropyl)-Beta-cyclodextrin in PBS
hMMP-12 [10] = target: T6, hMMP-12; assay: SensoLyte 520 MMP-12 Fluorimetric Assay Kit enzymatic inhibition assay; format: biochemical
MMP-14 [11] = target: T2, MMP-14; assay: SensoLyte 520 Fluorimetric Assay Kit selectivity assay, MMP-14; format: biochemical; settings: agents tested at 25 nM or at 4 nM (Figure 5)
MMP-1 [12] = target: T5, MMP-1; assay: SensoLyte 520 Fluorimetric Assay Kit selectivity assay, MMP-1; format: biochemical; settings: agents tested at 25 nM or at 4 nM (Figure 5)
[13] = format: in vivo; settings: 30 mg/kg i.p., Balb-C mice; converted from ng/ml
MMP-13 [14] = target: T4, MMP-13; assay: SensoLyte 520 Fluorimetric Assay Kit selectivity assay, MMP-13; format: biochemical; settings: agents tested at 25 nM or at 4 nM (Figure 5)
MMP-9 [15] = target: T3, MMP-9; assay: SensoLyte 520 Fluorimetric Assay Kit selectivity assay, MMP-9; format: biochemical; settings: agents tested at 25 nM or at 4 nM (Figure 5)

| SMILES | inhibition of MMP-3 (MMP-3 [1]) | mode of hMMP-12 inhibition (hMMP-12 [10]) | inhibition of MMP-14 (MMP-14 [11]) | inhibition of MMP-1 (MMP-1 [12]) | inhibition of MMP-13 (MMP-13 [14]) | inhibition of MMP-9 (MMP-9 [15]) | emphysema-like pathology (MLI) compared to PPE + vehicle-treated mice [2] | also measured |
| --- | --- | --- | --- | --- | --- | --- | --- | --- |
| COC(=O)Nc1ccc2oc3cc(S(=O)(=O)N[C@H](C(=O)O)C(C)C)ccc3c2c1 [MMP408, (S)-2-(8-(methoxycarbonylamino)dibenzo[b,d]furan-3-sulfonamido)-3-methylbutanoic acid, reference compound] |  |  |  |  |  |  | significant decrease |  |
| CC(=O)N[C@@H](COCc1ccccc1)C(=O)N[C@H](CCc1ccccc1)C(=O)N[C@H](Cc1ccccc1)C(=O)NO [compound 1] (Ac-Ser(Bn)-[d(hPhe)]-[dF]-{NHOH}) |  |  |  |  |  |  |  | inhibition of MMP-14 (MMP-14 [3]): did not significantly inhibit; inhibition of MMP-9 (MMP-9 [4]): did not significantly inhibit; inhibition of MMP-13 (MMP-13 [5]): did not significantly inhibit; inhibition of MMP-1 (MMP-1 [6]): did not significantly inhibit; IC50 (hMMP-12 [7]): ~30 nM and 29.7 nM; inhibition of MMP-3 (MMP-3 [8]): ~ 19% |
| COc1ccc(CCC[C@H](NC(=O)CN2CCOCC2)C(=O)N[C@H](CCc2ccc(OC)cc2)C(=O)N[C@H](Cc2ccc(C)cc2)C(=O)NO)cc1 [compound 26] | appreciable inhibition | competitive inhibitors | did not display significant inhibition | did not display significant inhibition | did not display significant inhibition | did not display significant inhibition | significant decrease |  |

Second part, led by results:

| inhibition of MMP-3 (MMP-3 [1]) | mode of hMMP-12 inhibition (hMMP-12 [10]) | inhibition of MMP-14 (MMP-14 [11]) | inhibition of MMP-1 (MMP-1 [12]) | inhibition of MMP-13 (MMP-13 [14]) | inhibition of MMP-9 (MMP-9 [15]) | SMILES | emphysema-like pathology (MLI) compared to PPE + vehicle-treated mice [2] | also measured |
| --- | --- | --- | --- | --- | --- | --- | --- | --- |
| appreciable inhibition |  |  |  |  |  | CNC(=O)[C@H](Cc1c[nH]c2ccccc12)NC(=O)[C@@H](CC(=O)NO)CC(C)C [GM6001, reference compound] |  |  |
| appreciable inhibition | competitive inhibitors | did not display significant inhibition | did not display significant inhibition | did not display significant inhibition | did not display significant inhibition | COc1ccc(CC[C@@H](NC(=O)[C@H](CCCc2ccccc2)NC(=O)CN2CCOCC2)C(=O)N[C@H](Cc2ccc(C)cc2)C(=O)NO)cc1 [compound 25] | significant decrease | solubility in formulation [9]: soluble; peak plasma drug concentration [13]: ~ 580 nM |
